Details: instrument: DT, stepped-field

| collision cross section (N2) ([M+2Na-H]+) [Å²] | collision cross section (N2) ([M+H]+) [Å²] | collision cross section (N2) ([M+Na]+) [Å²] | Compound | other results |
| --- | --- | --- | --- | --- |
| 281.53 |  |  | CCCCC/C=C\C/C=C\C/C=C\C/C=C\CCCCCC(=O)OC[C@H](COP(=O)(O)OC[C@H](N)C(=O)O)OC(=O)CCCCCCCCCCCCC [PS(36:04)] |  |
| 292.46 | 287.73 |  | CCCCCC/C=C\CCCCCCCC(=O)OC[C@H](COP(=O)(O)OC[C@H](N)C(=O)O)OC(=O)CCCCCCCCC/C=C\CCCCCCCCCC [PS(38:02)] | collision cross section (N2) ([M-H]-): 287.56 Å² |
| 299.44 | 294.02 |  | CCCCC/C=C\C/C=C\CCCCCCCCCCCC(=O)O[C@H](COC(=O)CCCCCCCCCCCCCCCCC)COP(=O)(O)OC[C@H](N)C(=O)O [PS(40:02)] |  |
|  | 292.62 | 296.28 | CCCCC/C=C\C/C=C\CCCCCCCCCCCC(=O)O[C@H](COC(=O)CCCCCCC/C=C\CCCCCCCC)COP(=O)(O)OC[C@H](N)C(=O)O [PS(40:03)] |  |
| 295.61 | 287.73 | 291.7 | CCCCC/C=C\C/C=C\C/C=C\C/C=C\CCCCCC(=O)O[C@H](COC(=O)CCCCCCC/C=C\C/C=C\CCCCC)COP(=O)(O)OC[C@H](N)C(=O)O [PS(40:06)] | collision cross section (N2) ([M+K]+): 292.76 Å²; collision cross section (N2) ([M-H]-): 289.09 Å² |
| 290.15 |  | 289.65 | CC/C=C\C/C=C\C/C=C\CCCCCCCC(=O)O[C@H](COC(=O)CCCCC/C=C\C/C=C\C/C=C\C/C=C\CCCCC)COP(=O)(O)OC[C@H](N)C(=O)O [PS(40:07)] | collision cross section (N2) ([M-H]-): 287.37 Å² |
| 298.43 |  |  | CC/C=C\C/C=C\C/C=C\C/C=C\C/C=C\CCCC(=O)OC[C@H](COP(=O)(O)OC[C@H](N)C(=O)O)OC(=O)CCCCCCCCCCCCCCCCCCCC [PS(41:05)] |  |
| 296.35 |  |  | CC/C=C\C/C=C\C/C=C\C/C=C\C/C=C\C/C=C\CCC(=O)O[C@H](COC(=O)CCCCCCCCC/C=C\CCCCCCCC)COP(=O)(O)OC[C@H](N)C(=O)O [PS(42:07)] |  |
| 306.87 |  |  | CCCCC/C=C\C/C=C\C/C=C\C/C=C\CCCCCC(=O)OC[C@H](COP(=O)(O)OC[C@H](N)C(=O)O)OC(=O)CCCCCCCCC/C=C\CCCCCCCCCC [PS(44:05)] |  |
| 303.11 |  |  | CC/C=C\C/C=C\C/C=C\C/C=C\C/C=C\C/C=C\CCC(=O)O[C@H](COC(=O)CCCCCCCCC/C=C\CCCCCCCCCC)COP(=O)(O)OC[C@H](N)C(=O)O [PS(44:07)] |  |

The remaining lines, values behind:

| Compound | collision cross section (N2) ([M+2Na-H]+) [Å²] | collision cross section (N2) ([M+H]+) [Å²] | collision cross section (N2) ([M+Na]+) [Å²] | other results |
| --- | --- | --- | --- | --- |
| CCCCC/C=C\C/C=C\C/C=C\C/C=C\CCCCCC(=O)O[C@H](COCCCCCCCCCCCCCCCCCC)COP(=O)(O)OCCN [PE(o40:04)] | 293.52 |  |  |  |
| CCCCCCCC/C=C\CCCCCCCC(=O)O[C@H](COC(=O)CCCCCCCCCCCCCCCCC)COP(=O)(O)OC[C@H](N)C(=O)O [PS(36:01)] | 287.95 | 283.39 |  | collision cross section (N2) ([M+K]+): 287.48 Å²; collision cross section (N2) ([M-H]-): 282.92 Å² |
| CC/C=C\C/C=C\C/C=C\C/C=C\C/C=C\CCCC(=O)O[C@H](COC(=O)CCCCCC/C=C\C/C=C\C/C=C\CCCCC)COP(=O)(O)OC[C@H](N)C(=O)O [PS(40:08)] | 287.97 |  |  |  |
| CCCCCCCCCC/C=C\CCCCCCCCCC(=O)O[C@H](COC(=O)CCCCCCCCCCCCCCCCCCC)COP(=O)(O)OC[C@H](N)C(=O)O [PS(42:01)] |  | 301.86 | 303.25 |  |
| CCCCCCCCCCCCC=CC[C@@H](O)[C@H](COP(=O)([O-])OCC[N+](C)(C)C)NC(=O)CCCCCCCCCCCCCCC [SM(34:01)] |  | 280.06 | 278.77 | collision cross section (N2) ([M+Cl]-): 284.26 Å²; collision cross section (N2) ([M+HCOO]-): 284.66 Å² |
| CCCCCCCCCCCCC=CC[C@@H](O)[C@H](COP(=O)([O-])OCC[N+](C)(C)C)NC(=O)CCCCCCCCCCCCCCCCC [SM(36:01)] |  | 286.24 | 285.86 | collision cross section (N2) ([M+Cl]-): 288.69 Å²; collision cross section (N2) ([M+HCOO]-): 290.34 Å²; collision cross section (N2) ([M+K]+): 288.38 Å²; collision cross section (N2) ([M+Na-H2O]+): 280.09 Å² |
| CCCCCCCCCCCCC=CC[C@@H](O)[C@H](COP(=O)([O-])OCC[N+](C)(C)C)NC(=O)CC=CCCCCCCCCCCCCCCCCCC [SM(40:02)] |  | 295.66 | 292.53 | collision cross section (N2) ([M+Cl]-): 299.55 Å²; collision cross section (N2) ([M+HCOO]-): 299.75 Å² |
| CCCCCCCCCCCCCCCCCCCCCCCC(=O)N[C@@H](COP(=O)([O-])OCC[N+](C)(C)C)[C@H](O)CCCCCCCCCCCCCCC [SM(42:00)] |  | 305.33 |  | collision cross section (N2) ([M+HCOO]-): 308.73 Å² |
| CCCCCCCCCCCCC=CC[C@@H](O)[C@H](COP(=O)([O-])OCC[N+](C)(C)C)NC(=O)CC=CCCCCCCCCCCCCCCCCCCCCCC [SM(44:02)] |  | 307.52 | 306.5 |  |
